Experimental data taken from paper PMC4102965 (ACS Chemical Neuroscience, 2014).
Like-named read-outs stand apart in the source and are kept apart here. Marks after values point to notes of the source that are not given here.

Experiments:
PSL rats = test: Anti-allodynia test in PSL; assay type: in vivo; details: 30 mg/kg oral
[1] = Pharmacokinetics after single oral dosing, plasma and brain by LC-MS/MS; assay type: in vivo, rats; details: male, SD, rat, 30 mg/kg
[2] = molecular target: gabapentin-binding site (presumably α2-δ subunit proteins) (Rattus norvegicus, UniProt P54290); test: [3H]gabapentin-binding assay, rat cerebral cortex membranes
SNL rats = details: previously reported; cited from earlier work
[3] = human; cited from earlier work
[4] = dog; cited from earlier work
[5] = system: neuromuscular coordination in rats; test: Rotarod test; details: for duration (s) 1 h / duration (s) 2 h / duration (s) 3 h: mean (SEM), max 180 s
SNL mice = test: Anti-allodynia test in SNL; details: 30 mg/kg oral gavage

gabapentin-binding site (presumably α2-δ subunit proteins), sequence (P54290 25-1091): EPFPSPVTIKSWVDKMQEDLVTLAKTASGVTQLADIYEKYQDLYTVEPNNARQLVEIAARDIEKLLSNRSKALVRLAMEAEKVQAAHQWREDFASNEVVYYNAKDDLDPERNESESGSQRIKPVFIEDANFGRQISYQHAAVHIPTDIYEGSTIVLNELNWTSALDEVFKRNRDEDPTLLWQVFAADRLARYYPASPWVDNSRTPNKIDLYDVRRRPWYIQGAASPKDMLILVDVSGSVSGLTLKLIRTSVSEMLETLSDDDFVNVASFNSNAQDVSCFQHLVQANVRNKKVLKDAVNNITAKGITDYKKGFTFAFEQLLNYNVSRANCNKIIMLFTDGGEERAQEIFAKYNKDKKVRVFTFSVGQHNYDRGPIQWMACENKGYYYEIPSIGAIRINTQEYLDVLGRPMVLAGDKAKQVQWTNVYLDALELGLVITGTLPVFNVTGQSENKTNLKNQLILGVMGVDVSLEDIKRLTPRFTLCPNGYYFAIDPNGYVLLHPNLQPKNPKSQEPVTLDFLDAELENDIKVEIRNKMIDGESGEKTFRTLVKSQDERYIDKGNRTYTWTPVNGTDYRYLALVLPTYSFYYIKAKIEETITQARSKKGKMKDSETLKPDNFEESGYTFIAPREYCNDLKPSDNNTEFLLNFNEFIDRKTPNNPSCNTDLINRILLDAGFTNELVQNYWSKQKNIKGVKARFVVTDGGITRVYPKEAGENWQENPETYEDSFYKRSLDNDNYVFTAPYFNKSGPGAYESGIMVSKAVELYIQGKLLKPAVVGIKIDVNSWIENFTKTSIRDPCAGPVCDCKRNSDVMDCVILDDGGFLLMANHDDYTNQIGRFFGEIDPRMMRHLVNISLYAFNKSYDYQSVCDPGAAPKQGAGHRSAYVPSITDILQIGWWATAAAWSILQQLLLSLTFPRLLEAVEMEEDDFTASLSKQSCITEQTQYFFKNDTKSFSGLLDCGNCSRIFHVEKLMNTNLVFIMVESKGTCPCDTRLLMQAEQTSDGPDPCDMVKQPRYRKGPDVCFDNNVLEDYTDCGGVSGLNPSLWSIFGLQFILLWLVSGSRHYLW

Question: For `CC(C)CC(CN)CC(=O)O` (centres unmarked) [pregabalin, 3-isobutyl-γ-aminobutyric acid], which analgesic effects (PSL rats; PSL (Seltzer) rats) is on record?
Answer: The analgesic effects was “significant analgesic effects”.

Question: What about the “time at which efficacy on the ipsilateral side peaked” value (PSL rats; PSL rats) of the same compound?
Answer: Its value is 180 min.

Question: What about the “time up to which efficacy on the ipsilateral side was sustained” value (PSL rats; PSL rats) of the same compound?
Answer: Its value is 300 min.

Question: And the “hypalgesic effect on the contralateral side” value (PSL rats; PSL rats, 180 min after administration)?
Answer: Its value is “remarkable hypalgesic effect”.

Question: And the concentration at 1 h ([1]; brain)?
Answer: The concentration at 1 h was 12.4 µM.

Question: What about the concentration at 1 h ([1]; plasma) of the same compound?
Answer: The concentration at 1 h was 109 µM.

Question: And the “RBA (%)” value ([2]; IC50 of pregabalin divided by IC50 of test compound)?
Answer: Its value is 100%.

Question: And the inhibition at 0.39 µM ([2]; read-out: % inhibition (at μM))?
Answer: Its inhibition at 0.39 µM is 79%.

Question: And the “effect on pain thresholds on both sides of SNL rats” value (SNL rats)?
Answer: Its value is “bilateral hypalgesic activity”.

Question: And the “plasma half-life (T1/2)” value [3]?
Answer: Its value is “around 6 h”.

Question: What about the “plasma half-life (T1/2)” value [4] of the same compound?
Answer: Its value is “around 6 h”.

Question: And the “duration (s) 1 h” value ([5]; 10 mg/kg oral)?
Answer: Its value is 180 (0.0) s.

Question: What about the “duration (s) 2 h” value ([5]; 10 mg/kg oral) of the same compound?
Answer: The value was 160 (19.8) s.

Question: What about the “duration (s) 3 h” value ([5]; 10 mg/kg oral, 10 mg/kg) of the same compound?
Answer: Its value is “significantly shortened”.

Question: What about the “duration (s) 1 h” value ([5]; 30 mg/kg oral) of the same compound?
Answer: The value was 180 (0.0) s.

Question: What about the “duration (s) 2 h” value ([5]; 30 mg/kg oral) of the same compound?
Answer: The value was 93 (24.4)^## s.

Question: And the “duration (s) 3 h” value ([5]; 30 mg/kg oral)?
Answer: The value was 12 (3.7)^## s.

Question: And the “duration (s) 1 h” value ([5]; 100 mg/kg oral)?
Answer: The value was 53 (11.5)^# s.

Question: And the “duration (s) 2 h” value ([5]; 100 mg/kg oral)?
Answer: The value was 13 (6.3)^## s.

Question: What about the “duration (s) 3 h” value ([5]; 100 mg/kg oral) of the same compound?
Answer: Its value is 6 (2.1)^## s.

Question: And the “effect on neuromuscular coordination (duration on the rotating rods)” value ([5]; oral, over the doses tested)?
Answer: Its value is “significantly and dose-dependently reduced the duration”.

Question: And the “antiallodynic activity (pain thresholds, paw withdrawal to von Frey filaments)” value (SNL mice; SNL mice)?
Answer: Its value is “significant antiallodynic activity”.

Question: What about the “pain thresholds in sham mice (hypalgesic effect)” value (SNL mice; sham mice) of the same compound?
Answer: Its value is “significantly increased the pain thresholds in sham mice at the late time point of 180 min”.
